Assay results: US6627760B1, “Amorphous compound” (AstraZeneca AB, priority 2001, dated 2003)

How the values were obtained:
[1] = Glass transition temperature by Differential Scanning Calorimetry (DSC); type: physicochemical; settings: dry amorphous lisinopril
Experimental: Differential Scanning Calorimetry (DSC) was performed on approximately 0.5-3 mg sample, using a Mettler DSC820 instrument, according to standard methods, for example those described in Hohne et al. (1996) Differential scanning Calorimetry, Springer, Berlin.

[2] = Glass transition temperature by Thermal Mechanical Analysis (TMA); type: physicochemical; settings: heating rate 10° C./min, 30-160° C.
Experimental: The method involves compressing 140 mg of material in a punch and die (3 mm) to 2 KN. The compressed pellet was then placed on the TMA and the 1.1 mm probe placed on the top face. A heating rate of 10° C./min was used and the sample was heated from 30-160° C.

[3] = cited from earlier work

Structure (SMILES)	glass transition temperature (Tg) by DSC [1] [°C]	glass transition temperature by TMA [2] [°C]	effective half-life of accumulation ([3]; multiple dosing)	time to peak serum concentrations ([3]; oral administration) [h]
NCCCC[C@H](NC(CCc1ccccc1)C(=O)O)C(=O)N1CCC[C@H]1C(=O)O (stereo partly drawn) [amorphous lisinopril, (S)-1-[N^2-(1-carboxy-3-phenylpropyl]-L-lysyl]-L-proline]	125	129		
NCCCC[C@H](NC(CCc1ccccc1)C(=O)O)C(=O)N1CCC[C@H]1C(=O)O (stereo partly drawn) [lisinopril, (S)-1-[N^2-(1-carboxy-3-phenylpropyl]-L-lysyl]-L-proline]			about 12.6 hours	≤ 7
